Results on seven compounds are retold here after paper PMC5603512, “Discovery, Semisynthesis, Antiparasitic and Cytotoxic Evaluation of 14-Membered Resorcylic Acid Lactones and Their Derivatives” (Scientific Reports, 2017).

In data set [1] the test system is P. falciparum lines K1. The note with it: cited from earlier work.
Data set [2] relates to P. falciparum lines 3D7. Details: method as in PMID 20429578, PMID 20429578. Conditions: line 3D7; read-out: IC50 against P. falciparum line 3D7; cited from earlier work.
The subject of data set [3] is P. falciparum lines Dd2. The note with it: line Dd2; read-out: IC50 against P. falciparum line Dd2; cited from earlier work.
Data set [4] has as its system Plasmodium falciparum. As to the kind of experiment: Antiplasmodial assay (PicoGreen growth inhibition in infected human erythrocytes). It is filed as cell-based. The note with it: Erythrocyte, in vitro, W2 and 3D7 strains cultured, strain of the values not stated, read-out: Plasmodium falciparum IC50. On the procedure: Activity against the causative agent of malaria was performed by culturing human erythrocytes and infecting them with P. falciparum, as described by Trager and Jensen[36]. Briefly, the W2 (Chloroquine resistant) and 3D7 (Chloroquine sensitive) strains of P. falciparum were cultured in RPMI 1640 medium (Sigma-Aldrich, USA) supplemented with 10% human serum (from O+ blood) at a hematocrit of 2% erythrocytes (O+) at 37 °C in a gas mixture of 5% CO2, 5% O2, and 90% N2. Parasites were synchronized by a temperature cycling technique as described by Almanza et al.[37]

The test system of data set [5] is Leishmania donovani. As to the kind of experiment: Antileishmanial assay (PicoGreen). It is filed as cell-based. Conditions: in vitro, read-out: Leishmania donovani IC50. On the procedure: The anti-leishmania activity was evaluated following the protocol described by Calderon et al.[39], using the fluorescent DNA intercalator PicoGreen (Invitrogen, USA). The species responsible for visceral leishmaniasis, L. donovani, was used for the assays.

The nature of data set [6]: Toxicity against Vero cells (MTT). The data set is classed as cell-based, African green monkey. The note with it: African green monkey, Vero cells (mammalian kidney cell line); MTT, 48 h. As for the experimental part: (§1) It should be emphasized that toxicity is a major concern of drug discovery and development. The above active compounds were evaluated for in vitro toxicity against a mammalian kidney cell line (Vero). The selectivity index (SI) was used as the evaluation parameter of drug potential of the test samples by comparing the toxicity on the Vero cell line (CC50) and the selective inhibitory effect on P. falciparum, L. donovani or T. cruzi (IC50) calculated here as CC50/IC50.
(§2) Adriamycin was used as a positive control.

The nature of data set [7]: Cytotoxicity SRB assay, HCT-116. Conditions: human, HCT-116 colon carcinoma cells. On the procedure: (§3) All of the compounds were also evaluated for their cytotoxic properties against six human cancer cell lines (lung carcinoma epithelian (A549), colon carcinoma (HCT-116), pancreatic carcinoma (BXPC-3), breast cancer (MCF-7), cervical epithelium (HeLa), and erythroleukemic (K562)) and a human umbilical vein endothelial cell (HUVEC) line (Table 2).
(§4) The cytotoxicity against HCT-116, BXPC-3, HeLa, MCF-7, A-549, and HUVEC cell lines was evaluated using the SRB method. The cytotoxicity against K562 and Vero cell lines was evaluated using the MTT method. Adriamycin was used as a positive control. All cells were cultivated in T-75 flasks containing 10% Fetal Bovine Serum (FBS), Dulbeco’s Modified Eagle Medium (DMEM) with 2 mM L-glutamine, and 1% penicillin-streptomycin at 37 °C in a humidified atmosphere with 5% CO2. For SRB assay, cells in their log phase of growth were seeded into 96 well micro plates (4 × 10^4 cells per well) and followed by treating with test samples at 10 μM or DMSO. After incubation at 37 °C for 72 h, the cells were fixed with the cold 20% (w/v) TCA for 2 h and stained with Sulforhodamine B (SRB) dye for 0.5 h. The protein-bound dye is dissolved in Tris base solution for OD determination at 540 nm on an ELISA Plate Reader. For MTT assay, cells (5 × 10^3 cells per well) were plated in 96 well micro plates. After cell attachment overnight, new medium containing test compounds or DMSO was added. The plate was incubated for 48 h at 37 °C and incubated with 3-(4,5-dimethylthiazol-2-yl)-2,5-diphenyltetrazolium bromide (MTT) for additional 2–4 hours. The assay plate was then read at 490 nm on an ELISA Plate Reader. The data were obtained from experiments carried out in triplicate.
(In general: The SRB assay estimates cell density from bound dye.)

Data set [8] is described as follows: Cytotoxicity SRB assay, BXPC-3. The note with it: human, BXPC-3 pancreatic carcinoma cells. On the procedure:
as §3, §4

A short description of data set [9]: Cytotoxicity SRB assay, HeLa. The note with it: human, HeLa cervical epithelium cells. As for the experimental part:
as §3, §4

A short description of data set [10]: Cytotoxicity SRB assay, MCF-7. The note with it: human, MCF-7 breast cancer cells. On the procedure:
as §3, §4

Data set [11] in a line: Cytotoxicity SRB assay, A-549. The note with it: human, A-549 lung carcinoma cells. As for the experimental part: as §3, §4
Data set [12] in a line: Cytotoxicity MTT assay, K562. Conditions: human, K562 erythroleukemic cells. As for the experimental part:
as §3, §4
In general terms: Tetrazolium dyes change colour on reduction, which living cells bring about.

The nature of data set [13]: Cytotoxicity SRB assay, HUVEC. The note with it: human, HUVEC (umbilical vein endothelial cells). On the procedure:
as §3, §4

The nature of data set [14]: Cytotoxicity against the panel of six human cancer cell lines and HUVEC. On the procedure:
as §3, §4

A short description of data set [15]: Chemical stability / interconversion in solvents. The note with it: MeOH, EtOH, MeOH-d4 (except H2O), stationary state, within a week. It is filed as physicochemical. On the procedure:
Compounds 1–6 and 11–27 were designed and synthesized through one or two-step semisynthetic reaction with high yields ranging from 65–95% from 7 and 8 (Fig. 1). The structures of new derivatives 12, 14–19, 21–22, 24, and 27 were identified by extensive spectroscopic methods including HRESIMS, ^1H NMR, and ^13C NMR. Compound 1 was prepared in yield of 95% through one-step acetonide reaction from 8. Other acetonide derivatives (11, 17, 18, 20, 23, 25, and 26) were also prepared with the same yields. Chlorination of compound 8 with sulfuryl chloride[33] followed by selective reduction with 10% Pd-C under H2 atmosphere led to the natural compound 2 (68%, yield). Acylation reaction was carried out by reaction of anhydride with the corresponding materials (1–3, and 6–8) in high yields (85–95%). In order to prepare 6, oxidation of the allyl alcohol 8 was examined under various oxidation conditions (PCC, PDC, MnO2, DMP, and IBX). However, only DMP and IBX enabled the selective oxidation of the allyl alcohol to give 6 in 65% and 35% yields, respectively (Fig. 3). […] Compounds 3–6 are diastereomers differing from each other by the absolute configurations of the 4′, 5′-diol chiral centers. The proportions of compounds 3–6 were in dynamic equilibrium, and the final ratios of 3–6 were approximately 8: 2: 5: 6 (Fig. 4). […]

Data set [16] has as its system Trypanosoma cruzi. The data set is described as follows: Antitrypanosomal assay (beta-galactosidase reporter, intracellular amastigotes in Vero cells). Also: key: I: Inactive. It is filed as cell-based. Conditions: Tulahuen clone C4, intracellular amastigotes in Vero cells, 120 h. On the procedure: Briefly, the expression of the reporter gene for beta-galactosidase (β-Gal) in the Tulahuen clone C4 of T. cruzi is assessed by colorimetry at 570 nm, which correlates with the parasite growth. Assays were performed on the intracellular amastigote form of the parasite infecting African green monkey kidney (Vero) cells, incubated for 120 h at 37 °C with 5% CO2.

Data set [17] deals with Vero cells. The data set is described as follows: Toxicity against Vero cells (MTT). The data set is classed as cell-based, African green monkey. Conditions: in vitro toxicity against mammalian kidney cell line (Vero). As for the experimental part: as §1, §2

The structures appear in SMILES notation. ≈ marks a conversion by molar mass, not a printed value.

As to `COc1cc(O)c2c(c1)[C@H]1O[C@@H]1C[C@H](O)[C@H](O)C(=O)/C=C\C[C@H](C)OC2=O` [Hypothemycin], the “IC50 against P. falciparum line K1” value in [1] was 2.2 mg/L (≈ 5.81 µM).

Consider `C[C@H]1C/C=C/[C@@H](O)[C@@H](O)CC/C=C/c2cc(O)cc(O)c2C(=O)O1` [aigialomycin D], for which the “IC50 against P. falciparum line K1” value in data set [1] is 6.6 mg/L (≈ 19.7 µM).

The term IC50 denotes the concentration needed to halve the response being measured. In the case of `COc1cc(O)c2c(c1)/C=C/C[C@H](O)[C@H](O)[C@@H](O)CCC[C@H](C)OC2=O` [Paecilomycin E, paecilomycin E], the IC50 in [2] is 0.02 µM; in data set [3] it was 8.8 µM.

The term CC50 denotes the concentration that lowers cell viability or growth by half. A low value points to harm at low concentration. On to `COc1cc(O)c2c(c1)/C=C/C[C@H](O)[C@H](O)C(=O)/C=C/C[C@H](C)OC2=O` [Compound 6], for which the IC50 is 14.9 µM in [4], 1.93 µM in [5] and below 10 µM in data set [14]. In data set [6], this compound yielded a half-maximal cytotoxic concentration (CC50) at 48 h of 3.2 µM. The 50% inhibitory concentration (IC50) at 72 h in data set [7] is above 10 µM; in data set [8], 8.47 µM; in [9], above 10 µM; in [10], above 10 µM; in data set [11], above 10 µM; in data set [13], 8.59 µM. The same compound displayed a concentration for half-maximal inhibition (IC50) at 48 h in data set [12] above 10 µM. In addition, the “Stability in protic solvents” value in data set [15] is “subtle chemical conversion of 6 to 3–5”.

As for `COc1cc(O)c2c(c1)/C=C/C[C@@H](O)[C@H](O)C(=O)/C=C/C[C@H](C)OC2=O` [Compound 3], the concentration for half-maximal inhibition (IC50) in data set [4] is above 30.7 µM; in [5], 9.11 µM; in data set [14], below 10 µM. In addition, in data set [16], the “Trypanosoma cruzi IC50” value is reported as “I”. The IC50 at 72 h in data set [7] was above 10 µM; in data set [8] it was above 10 µM; in data set [9] it was 7.18 µM; in [10], above 10 µM; in data set [11], above 10 µM. The IC50 at 48 h in data set [12] is above 10 µM. In [15], the “Stability in protic solvents” value was “quite stable”.

As to `COc1cc(O)c2c(c1)/C=C/C[C@H](O)[C@H](O)[C@H](O)CCC[C@H](C)OC2=O` [Paecilomycin F, paecilomycin F], the values for the IC50 in data set [2] and in [3] were 1.1 µM and 1.7 µM, respectively.

With `COc1cc(O)c2c(c1)/C=C/C[C@H](OC(C)=O)[C@H](OC(C)=O)[C@@H](OC(C)=O)/C=C/C[C@H](C)OC2=O` [Compound 12], the IC50 in data set [4] turned out to be 8.36 µM; in data set [5] it was 15.7 µM; in data set [16] (Trypanosoma cruzi, read-out: Trypanosoma cruzi IC50), 17.2 µM. The compound also came in with a CC50 at 48 h in [6] of 1520 µM. For the same compound, the “Toxicity (in words)” value in [17] is listed as “non-toxic”. For the same compound, the 50% inhibitory concentration (IC50) at 72 h in [7], in [8], in data set [9], in data set [10], in [11] and in data set [13] was above 10 µM throughout. In [12], this compound gave a half-maximal inhibitory concentration (IC50) at 48 h above 10 µM.
